Experimental findings from patent publication US6316450A, “Compounds” (SmithKline Beecham p.l.c., priority 1997, dated 2001) are described below.

Structures are written as SMILES. Where a name gives a salt, the structure may show the parent alone. Read-outs that look alike come from different tables or passages of the source.

For the test, the target named is human cloned 5-HT6 receptors (Homo sapiens, UniProt P50406). Kind of test: biochemical. The class given is binding. On the set-up: selectivity: reference not given here.
human cloned 5-HT6 receptors, sequence (P50406 whole entry): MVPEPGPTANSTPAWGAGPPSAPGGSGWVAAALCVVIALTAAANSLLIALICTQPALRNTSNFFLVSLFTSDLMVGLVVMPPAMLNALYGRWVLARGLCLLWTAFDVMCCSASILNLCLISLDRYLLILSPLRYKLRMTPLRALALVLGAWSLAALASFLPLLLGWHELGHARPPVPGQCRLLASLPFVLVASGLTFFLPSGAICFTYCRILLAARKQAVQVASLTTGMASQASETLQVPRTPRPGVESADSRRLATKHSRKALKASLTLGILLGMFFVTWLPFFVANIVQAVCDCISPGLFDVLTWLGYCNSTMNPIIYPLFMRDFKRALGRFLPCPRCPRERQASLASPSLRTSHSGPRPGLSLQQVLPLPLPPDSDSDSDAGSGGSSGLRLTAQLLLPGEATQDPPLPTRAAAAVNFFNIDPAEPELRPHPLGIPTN
Where [1] appears, read: [3H]-LSD, HeLa-5HT6 cell membranes, pH 7.7, 37° C., read-out: pKi (converted).
Setting [2] is: selective 5-HT6 receptor antagonist activity.

On to `COc1ccc(S(=O)(=O)Nc2cccc(Br)c2)cc1N1CCN(C)CC1.Cl` [Compound 3, N-(3-Bromophenyl)-4-methoxy-3-(4-methylpiperazin-1-yl)benzene sulfonamide hydrochloride], for which the Ki under setting [1] was less than 3.16 nM. This compound also had a selectivity under setting [2] greater than 100.

Consider `COc1ccc(S(=O)(=O)N2CCCc3ccc(C(F)(F)F)cc32)cc1N1CCN(C)CC1` [Compound 8, 1-[4-Methoxy-3-(4-methylpiperazin-1-yl)-benzenesulfonyl]-7-trifluoromethyl-1,2,3,4-tetrahydroquinoline], for which the Ki under setting [1] is less than 3.16 nM. The compound further yielded a selectivity under setting [2] greater than 100.

In the case of `COc1ccc(S(=O)(=O)N2CCc3c(OC)ccc(OC)c3C2)cc1N1CCN(C)CC1.Cl` [Compound 21, 5,8-Dimethoxy-2-[4-methoxy-3-(4-methylpiperazin-1-yl)-benzenesulfonyl]-1,2,3,4-tetrahydroisoquinoline hydrochloride], the Ki under setting [1] was less than 3.16 nM. The same compound registered a selectivity under setting [2] greater than 100.

`COc1ccc(S(=O)(=O)N2CCCc3ccc(C(F)(F)F)cc32)cc1N1CCNCC1` [Compound 29, 1-(4-Methoxy-3-piperizin-1-ylbenzenesulfonyl)-7-trifluoromethyl-1,2,3,4-tetrahydroquinoline hydrochloride]: the Ki under setting [1] was less than 3.16 nM. Besides, the selectivity under setting [2] is greater than 100.

Consider `COc1ccc(S(=O)(=O)Nc2ccccc2OC(F)(F)F)cc1N1CCN(C)CC1.Cl` [Compound 32, N-(2-Trifluoromethoxyphenyl)-4-methoxy-3-(4-methylpiperazin-1-yl)-benzenesulfonamide hydrochloride], for which the Ki under setting [1] was less than 3.16 nM. For the same compound, the selectivity under setting [2] was greater than 100.

Turning to `COc1ccc(S(=O)(=O)Nc2ccc(C)c(C)c2)cc1N1CCN(C)CC1.Cl` [Compound 41, N-(3,4-Dimethylphenyl)-4-methoxy-3-(4-methylpiperazin-1-yl)-benzenesulfonamide hydrochloride], the Ki under setting [1] was less than 3.16 nM. Also, under setting [2], the selectivity is on record as greater than 100.

Turning to `COc1ccc(S(=O)(=O)N2CCc3cccc(Cl)c3C2)cc1N1CCN(C)CC1.Cl` [Compound 44, 8-Chloro-2-[4-methoxy-3-(4-methylpiperazin-1-yl)benzenesulfonyl]-1,2,3,4-tetrahydroisoquinoline hydrochloride], the Ki under setting [1] was less than 3.16 nM. The compound further registered a selectivity under setting [2] greater than 100.

Consider `COc1ccc(S(=O)(=O)Nc2ccc(F)cc2Cl)cc1N1CCN(C)CC1.Cl` [Compound 45, N-(2-Chloro-4-fluorophenyl)-4-methoxy-3-(4-methylpiperazin-1-yl)-benzenesulfonamide hydrochloride], for which the Ki under setting [1] is less than 3.16 nM. Further, the selectivity under setting [2] was greater than 100.

In the case of `COc1ccc(S(=O)(=O)Nc2ccccc2I)cc1N1CCN(C)CC1.Cl` [Compound 53, N-(2-Iodophenyl)-4-methoxy-3-(4-methylpiperazin-1-yl)benzenesulfonamide hydrochloride], the Ki under setting [1] is less than 3.16 nM. This compound also showed a selectivity under setting [2] greater than 100.

Turning to `COc1ccc(S(=O)(=O)Nc2ccc(I)cc2Cl)cc1N1CCN(C)CC1.Cl` [Compound 54, N-(2-Chloro-4-iodophenyl)-4-methoxy-3-(4-methylpiperazin-1-yl)-benzenesulfonamide hydrochloride], under setting [1], the Ki is less than 3.16 nM. Under setting [2], this compound had a selectivity greater than 100.

For the compound `C=Cc1ccc(NS(=O)(=O)c2ccc(OC)c(N3CCN(C)CC3)c2)cc1.Cl` [Compound 63, 4-Methoxy-3-(4-methylpiperazin-1-yl)-N-(4-vinylphenyl)benzenesulfonamide hydrochloride], under setting [1], the Ki is less than 3.16 nM. Further, under setting [2], the selectivity was greater than 100.

In the case of `COc1ccc(S(=O)(=O)Nc2ccc(Br)c(C(F)(F)F)c2)cc1N1CCN(C)CC1.Cl` [Compound 67, N-(4-Bromo-3-trifluoromethylphenyl)-4-methoxy-3-(4-methylpiperazin-1-yl)-benzenesulfonamide hydrochloride], the Ki under setting [1] is less than 3.16 nM. This compound showed a selectivity under setting [2] greater than 100.

On to `COc1ccc(S(=O)(=O)Nc2ccc(Cl)c(C(F)(F)F)c2)cc1N1CCN(C)CC1.Cl` [Compound 69, N-(4-Chloro-3-trifluoromethylphenyl)-4-methoxy-3-(4-methylpiperazin-1-yl)-benzenesulfonamide hydrochloride], for which the Ki under setting [1] is less than 3.16 nM. The selectivity under setting [2] is greater than 100.

For `COc1ccc(S(=O)(=O)N2CCCc3c(Cl)cc(Cl)cc32)cc1N1CCN(C)CC1.Cl` [Compound 73, 5,7-Dichloro-1-[4-methoxy-3-(4-methylpiperazin-1-yl)benzenesulfonyl]-1,2,3,4-tetrahydroquinoline hydrochloride], the Ki under setting [1] was less than 3.16 nM. Further, the selectivity under setting [2] is listed as greater than 100.

For `COc1ccc(S(=O)(=O)Nc2ccccc2C(C)C)cc1N1CCNCC1.Cl` [Compound 79, N-(2-Isopropylphenyl)-4-methoxy-3-piperazin-1-yl-benzenesulfonamide hydrochloride], the Ki is less than 3.16 nM and the selectivity was greater than 100.

On to `COc1ccc(S(=O)(=O)Nc2ccccc2SC)cc1N1CCNCC1.Cl` [Compound 85, 4-Methoxy-N-(2-methylsulfanylphenyl)-3-piperazin-1-ylbenzenesulfonamide hydrochloride], for which the Ki under setting [1] was less than 3.16 nM. In addition, under setting [2], the selectivity is reported as greater than 100.

For the compound `CCc1ccccc1NS(=O)(=O)c1ccc(OC)c(N2CCNCC2)c1.Cl` [Compound 88, N-(2-Ethylphenyl)-4-methoxy-3-piperazin-1-ylbenzenesulfonamide hydrochloride], the Ki under setting [1] is less than 3.16 nM. Under setting [2], this compound yielded a selectivity greater than 100.

Turning to `COc1ccc(S(=O)(=O)Nc2cccc(C(F)(F)F)c2)cc1N1CCNCC1.Cl` [Compound 89, 4-Methoxy-3-piperazin-1-yl-N-(3-trifluoromethylphenyl)benzenesulfonamide hydrochloride], under setting [1], the Ki was less than 3.16 nM. This compound showed a selectivity under setting [2] greater than 100.

Consider `COc1ccc(S(=O)(=O)Nc2ccccc2Br)cc1N1CCNCC1.Cl` [Compound 91, N-(2-Bromophenyl)-4-methoxy-3-piperazin-1-ylbenzenesulfonamide hydrochloride], for which the Ki is less than 3.16 nM and the selectivity was greater than 100.

As for `COc1ccc(S(=O)(=O)Nc2cc(Br)ccc2Br)cc1N1CCNCC1.Cl` [Compound 100, N-(2,5-Dibromophenyl)-4-methoxy-3-piperazin-1-ylbenzenesulfonamide hydrochloride], the Ki under setting [1] is less than 3.16 nM. Under setting [2], this compound had a selectivity greater than 100.

Regarding `C=C(C)c1ccccc1NS(=O)(=O)c1ccc(OC)c(N2CCNCC2)c1.Cl` [Compound 104, N-(2-Isopropenylphenyl)-4-methoxy-3-piperazin-1-ylbenzenesulfonamide hydrochloride], under setting [1], the Ki was less than 3.16 nM. Besides, under setting [2], the selectivity is given as greater than 100.

Turning to `COc1ccc(S(=O)(=O)Nc2ccc(C(C)(C)C)cc2)cc1N1CCNCC1.Cl` [Compound 107, N-(4-tert-Butylphenyl)-4-methoxy-3-piperazin-1-ylbenzenesulfonamide hydrochloride], the Ki under setting [1] was less than 3.16 nM. This compound also came in with a selectivity under setting [2] greater than 100.

For `COc1ccc(S(=O)(=O)Nc2ccccc2-c2ccccc2)cc1N1CCNCC1.Cl` [Compound 113, N-Biphenyl-2-yl-4-methoxy-3-piperazin-1-ylbenzenesulfonamide hydrochloride], the Ki under setting [1] was less than 3.16 nM. Moreover, the selectivity under setting [2] is listed as greater than 100.

Turning to `COc1ccc(S(=O)(=O)Nc2cc(Cl)c(Cl)cc2Cl)cc1N1CCNCC1.Cl` [Compound 131, N-(2,4,5-Trichlorophenyl)-4-methoxy-3-piperazin-1-ylbenzenesulfonamide hydrochloride], the Ki under setting [1] is less than 3.16 nM. This compound had a selectivity under setting [2] greater than 100.

In the case of `COc1ccc(Cl)cc1NS(=O)(=O)c1ccc(OC)c(N2CCNCC2)c1.Cl` [Compound 132, N-(5-Chloro-2-methoxyphenyl)-4-methoxy-3-piperazin-1-ylbenzenesulfonamide hydrochloride], the Ki under setting [1] is less than 3.16 nM. Further, under setting [2], the selectivity is listed as greater than 100.

Consider `COc1ccc(S(=O)(=O)N2CCCc3ccc(Br)cc32)cc1N1CCNCC1.Cl` [Compound 145, 7-Bromo-1-(4-methoxy-3-piperazin-1-ylbenzenesulfonyl)-1,2,3,4-tetrahydroquinoline hydrochloride], for which the selectivity is given as greater than 100. In addition, under “read-out: pKi (converted)”, the Ki was less than 3.16 nM.
